Experimental findings from the Bradley open melting point set (2014) are described below.

In the case of `CNCC(O)c1ccccc1` (stereo not given) [2-(Methylamino)-1-phenylethanol], the melting point came to 75 °C.

For `Cc1cc(C)nc(NS(=O)(=O)c2ccc(N)cc2)n1` [Sulfamethazine], the melting point came out at 196 °C.

`C=CCC1(C(C)C)C(=O)NC(=O)NC1=O` [aprobarbital] came in with a melting point of 143 °C.

In turn, `Cc1ccc(/C=C(/C#N)c2nc(-c3ccccc3)cs2)cc1` had a melting point of 79 °C.

Compound `O=C(O)/C=C/C(=O)O` [fumaric acid] showed a melting point of 300 °C.

`Cc1ccc(I)cc1` [4-iodotoluene] displayed a melting point of 34 °C.

For the compound `CC(=O)Cl` [acetyl_chloride], the melting point was -112 °C.

Turning to `O=[N+]([O-])c1ccc(Oc2ccc(C(F)(F)F)cc2[N+](=O)[O-])cc1` [fluorodifen], the melting point was found to be 94 °C.

For the compound `COc1ccc(C(=O)c2ccc(OC)cc2OC)cc1` [2,4,4'-trimethoxybenzophenone], the melting point is 72 °C.

Turning to `Clc1ccc(cc1)NC3=CC4=Nc2ccccc2N(C4=C/C3=NC(C)C)c5ccc(Cl)cc5` [clofazimine], the melting point was 211 °C.

`N#Cc1ccc(C#N)cc1` [Terephthalonitrile]: the melting point was 226 °C.

With `Clc1cccc(I)c1Cl` [1,2-dichloro-3-iodobenzene], the melting point worked out at 35 °C.

On to `Oc1ccnc2ccc(C(F)(F)F)cc12` [4-hydroxy-6-(trifluoromethyl)quinoline], for which the melting point is 267 °C.

For the compound `CCOC(=O)C1=C(C)NC(=S)NC1c1ccccc1` (stereo not given), the melting point was found to be 205 °C.

`COc1ccc2c(c1)=NC(c1ccccc1)C=2c1ccccc1` (stereo not given) [6-methoxy-2,3-diphenyl-1H-indole] yielded a melting point of 212 °C.

As for `c1ccsc1` [Thiophene], the melting point was -38 °C.

Compound `C[C@@H]1O[C@H](OC[C@@H]2O[C@H](Oc3c(-c4ccc(O)c(O)c4)oc4cc(O)cc(O)c4c3=O)[C@@H](O)[C@H](O)[C@H]2O)[C@@H](O)[C@H](O)[C@H]1O` [Rutin] came in with a melting point of 125 °C.

`COc1ccc2c(c1)c1c3n2CCN(C)C3=NCC1` [metralindole] displayed a melting point of 164 °C.

In the case of `CCCc1ccccc1` [Propylbenzene], the melting point is -99 °C.

Take `O=[N+]([O-])c1ccc(Cl)cc1` [4-chloronitrobenzene]: the melting point came to 83.5 °C.

Turning to `CCc1c(C)cccc1C` [1,3-dimethyl-2-ethylbenzene], the melting point is -16 °C.

`CCc1c(C)[nH]c2c1C(=O)C(CN1CCOCC1)CC2` (stereo not given) [molindone] had a melting point of 180 °C.

Compound `C1CCC2=NCCCN2CC1` [1,8-diazabicyclo[5.4.0]undec-7-ene] yielded a melting point of -70 °C.

Regarding `CCCc1ccccc1` [N-propylbenzene], the melting point was -100 °C.

In turn, `C1CCC2OCCOCCOC3CCCCC3OCCOCCOC2C1` (stereo not given) [dicyclohexano-18-crown-6] yielded a melting point of 50 °C.

Take `CC[C@H]1OC(=O)[C@H](C)[C@@H](O[C@H]2C[C@@](C)(OC)[C@@H](O)[C@H](C)O2)C(C)[C@@H](O[C@@H]2O[C@H](C)C[C@H](N(C)C)[C@H]2O)[C@](C)(O)C[C@@H](C)CN(C)[C@H](C)[C@@H](O)[C@]1(C)O` (stereo not given in full) [Azithromycin]: the melting point amounted to 114 °C.

On to `COc1cc(C(=O)O)cc(OC)c1OC` [3,4,5-trimethoxybenzoic acid], for which the melting point was 170 °C.

Compound `CCC(c1ccccc1)c1ccccc1` [1,1-diphenylpropane] yielded a melting point of 14 °C.

The compound `O=Cc1cc([N+](=O)[O-])ccc1Cl` [2-chloro-5-nitrobenzaldehyde] displayed a melting point of 71 °C.

Regarding `CCCCCCCCCCO` [1-decanol], the melting point came to 7 °C.

The compound `CSCC[C@@H](NC(=O)OC(C)(C)C)C(=O)O` [N-boc-D-methionine] had a melting point of 49 °C.

The compound `COC1=C(OC)/C(=C\CN=[N+]=[N-])OC1=O` [(5E)-5-(2-azidoethylidene)-3,4-dimethoxyfuran-2(5H)-one] displayed a melting point of 56 °C.

`COC(=O)c1cccc(C(N)=O)c1` [isophthalic_acid,_methylester_amide] gave a melting point of 148 °C.

In the case of `S=C=Nc1ccccc1I` [2-iodophenyl isothiocyanate], the melting point was 38 °C.

`COc1cc(N)c(C(C)=O)cc1OC` [2'-amino-4',5'-dimethoxyacetophenone] showed a melting point of 106 °C.

The compound `Cc1ccc(-c2cc(C(F)(F)F)nn2-c2ccc(S(N)(=O)=O)cc2)cc1` [celecoxib] came in with a melting point of 158 °C.

Consider `O=[N+]([O-])c1ccccc1` [nitrobenzene], for which the melting point came out at 6 °C.

Compound `O=C(O)Cc1c(F)cccc1F` [2,6-difluorophenylacetic acid] returned a melting point of 101 °C.

Consider `N#CCc1csc2ccc(Cl)cc12` [5-chlorobenzo[b]thiophene-3-acetonitrile], for which the melting point was 134 °C.

As to `O=C(CC(=O)c1ccccc1)c1ccccc1` [1,3-diphenyl-1,3-propanedione], the melting point is 78 °C.

For the compound `N#CCOc1ccc(Cl)cc1Cl` [2,4-dichlorophenoxyacetonitrile], the melting point worked out at 47 °C.

In turn, `O=C(O)\C=C(/C)C` [B,B-dimethylacrylic acid] came in with a melting point of 69.5 °C.

With `O[C@H](c1ccccc1)[C@@H](O)c1ccccc1` [meso-hydrobenzoin], the melting point is 135 °C.

In turn, `Oc1c(F)c(F)c(F)c(F)c1F` [Pentafluorophenol] yielded a melting point of 35 °C.

On to `O=c1nc[nH]c2c1ncn2[C@H]1CC[C@@H](CO)O1` [Didanosine], for which the melting point amounted to 162 °C.

Compound `COC(=O)c1ccccc1N` [methyl anthranilate] returned a melting point of 24 °C.

Consider `OC[C@@H]1CCCN2CCCC[C@H]12` [lupinine], for which the melting point is 64 °C.

`NCCCCNCCCN` [spermidine]: the melting point was 24 °C.

`CC(C(=O)O)c1ccc(-c2ccccc2)c(F)c1` (stereo not given) [flurbiprofen] had a melting point of 110 °C.

`CC(=O)Oc1ccc(C(C)=O)cc1` [p-acetoxy_acetophenone] registered a melting point of 54 °C.

For the compound `CCCCCCCc1ccc(-c2ccc(C#N)cc2)cc1` [4-cyano-4'-n-heptylbiphenyl], the melting point turned out to be 31 °C.

Take `c1ccc2c(P(c3cccc4ccccc34)c3cccc4ccccc34)cccc2c1` [tri(1-naphthyl)phosphine]: the melting point worked out at 267 °C.

Regarding `CCCCCCBr` [1-bromohexane], the melting point was -85 °C.

In the case of `O=C(O)/C=C/c1ccc(F)cc1F` [trans-2,4-difluorocinnamic acid], the melting point was 217 °C.

`Cc1cccc(N)c1` [m-toluidine] came in with a melting point of -30 °C.

The compound `Oc1ccccc1C=NCCCN=Cc1ccccc1O` [N,N'-bis(salicylidene)-1,3-propanediamine] returned a melting point of 52 °C.

Take `CCOC(=O)c1ccc(O)cc1` [ethyl 4-hydroxybenzoate]: the melting point amounted to 117 °C.

`CCCCCCCC#N` [octanenitrile] gave a melting point of -45 °C.

`CC(=O)c1cccc(N)c1` [m-aminoacetophenone] gave a melting point of 97 °C.

`ON=Cc1ccncc1` [pyridine-4-carboxaldoxime] displayed a melting point of 132 °C.

Regarding `Cc1ccc(C(=O)c2ccccc2C(=O)O)cc1` [2-(4-toluoyl)benzoic acid], the melting point came to 138 °C.

In the case of `Oc1ccc2cc(O)ccc2c1` [2,6-dihydroxynaphthalene], the melting point came out at 224 °C.

Turning to `Cc1ccc2cc3c(ccc4ccccc43)c3c2c1CC3` [3-methylcholanthrene], the melting point is 180 °C.

`Cc1ncc(CO)c(C=O)c1O` [Pyridoxal] yielded a melting point of 172 °C.

As to `Nc1ccc2ccc3cccc4ccc1c2c34` [aminopyrene], the melting point amounted to 116 °C.

Consider `S=C=NC(c1ccccc1)(c1ccccc1)c1ccccc1` [triphenylmethyl isothiocyanate], for which the melting point is 135 °C.

Regarding `Cc1cc[n+]([O-])cc1` [4-picoline n-oxide], the melting point was 184 °C.

`OC[C@@H](O)[C@H]1O[C@@H]2O[C@H](C(Cl)(Cl)Cl)O[C@@H]2[C@H]1O` [1,2-O-[(1R)-2,2,2-Trichloroethylidene]-alpha-D-glucofuranose] returned a melting point of 187 °C.

Regarding `O=CNc1ccccc1` [formanilide], the melting point amounted to 47 °C.

In the case of `CC1(C)[C@@H]2CC[C@@]1(C)[C@@H](O)C2` [borneol], the melting point was 207 °C.

`CN[C@@H](C)[C@H](O)c1ccccc1` [(1R,2S)-2-(Methylamino)-1-phenylpropan-1-ol] came in with a melting point of 36 °C.

For the compound `CC(C)c1ccc(Cl)cc1` [p-chlorocumene], the melting point is -12 °C.

Compound `COc1ccc(C(C)=O)c(OC)c1` [2,4-dimethoxyacetophenone] showed a melting point of 41 °C.

Compound `CC12CCC(/C(=C/Nc3ccccc3)C1=O)C2(C)C` (stereo not given) returned a melting point of 166 °C.

In turn, `CCCCCCCCCCCCS[C@H](C(=O)Nc1cc(C)c(O)c(C)c1C)c1ccccc1` [eflucimibe] gave a melting point of -144 °C.

Consider `C=Cc1cccc(C(=O)O)c1` [m-vinylbenzoic_acid], for which the melting point turned out to be 96 °C.

Consider `O=C(N[C@H](CO)[C@H](O)c1ccc([N+](=O)[O-])cc1)C(Cl)Cl` [chloramphenicol], for which the melting point is 151 °C.

For the compound `CCOC(=O)c1ccc(N)cc1` [ethyl_4-aminobenzoate], the melting point came out at 89 °C.

In the case of `Cc1ccc(F)c(C=O)c1Cl` [2-chloro-6-fluoro-3-methylbenzaldehyde], the melting point is 27 °C.

In turn, `CCC1=C(C)N=NC1C` (stereo not given) [4-ethyl-3,5-dimethyl-1H-pyrazole] registered a melting point of 43 °C.

Consider `CC1(C)C[C@@H](C(=O)O)[C@@H]1N` (relative stereo) [trans-2-Amino-3,3-dimethylcyclobutane-1-carboxylic acid], for which the melting point came to 155 °C.

`CN1C(C(=O)Nc2ccccn2)=C(O)c2ccccc2S1(=O)=O` [piroxicam] displayed a melting point of 198 °C.

Consider `O=CCc1ccccc1` [phenylacetaldehyde], for which the melting point is -10 °C.

For `CC(=O)NS(=O)(=O)c1ccc(N)cc1` [Sulfacetamide], the melting point amounted to 182 °C.

As to `CC(=O)N[C@@H](Cc1ccccc1)C(=O)O` [N-acetyl-l-phenylalanine], the melting point was 168 °C.

Usually melting point stands for the temperature of the solid-liquid transition.
